Data reported in the supplement of paper PMC10307832.

Columns and labels:
Assay in all cases: relative viability (nuclei count vs DMSO), 5 days (fraction); higher = more cells survive
Irinotecan + Navitoclax = compound: CCc1c2c(nc3ccc(OC(=O)N4CCC(N5CCCCC5)CC4)cc13)-c1cc3c(c(=O)n1C2)COC(=O)[C@]3(O)CC [Irinotecan] + CC1(C)CCC(c2ccc(Cl)cc2)=C(CN2CCN(c3ccc(C(=O)NS(=O)(=O)c4ccc(N[C@H](CCN5CCOCC5)CSc5ccccc5)c(S(=O)(=O)C(F)(F)F)c4)cc3)CC2)C1 [Navitoclax] (partner 0.5 µM)
Outline: (§1)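 Lung cancer cell lines, seeded in 1536-well plates, were treated the following day by pin tool with a single drug or with five library-drug doses (not always all listed) in √10 steps on top of a fixed anchor-drug dose. Cells were fixed and nuclei stained in one step after 5 days, and nuclei were counted. Relative viability is the nuclei count for treated wells divided by that for vehicle wells, reported as medians of duplicate plates.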

MK-8033 + Palbociclib = compound: Cn1cc(-c2cnc3ccc4ccc(CS(=O)(=O)NCc5ccccn5)cc4c(=O)c3c2)cn1 [MK-8033] + CC(=O)c1c(C)c2cnc(Nc3ccc(N4CCNCC4)cn3)nc2n(C2CCCC2)c1=O [Palbociclib] (partner 0.5 µM)
Outline: as §1

MK-8033 + Lapatinib = compound: Cn1cc(-c2cnc3ccc4ccc(CS(=O)(=O)NCc5ccccn5)cc4c(=O)c3c2)cn1 [MK-8033] + CS(=O)(=O)CCNCc1ccc(-c2ccc3ncnc(Nc4ccc(OCc5cccc(F)c5)c(Cl)c4)c3c2)o1 [Lapatinib] (partner 2 µM)
Outline: as §1

MK-8033 + Luminespib = compound: Cn1cc(-c2cnc3ccc4ccc(CS(=O)(=O)NCc5ccccn5)cc4c(=O)c3c2)cn1 [MK-8033] + CCNC(=O)c1noc(-c2cc(C(C)C)c(O)cc2O)c1-c1ccc(CN2CCOCC2)cc1 [Luminespib] (partner 0.01 µM)
Outline: as §1

| Cell Line | relative viability (Irinotecan + Navitoclax; first compound 2 µM) | relative viability (Irinotecan + Navitoclax; first compound 6.325 µM) | relative viability (Irinotecan + Navitoclax; first compound 20 µM) | relative viability (MK-8033 + Palbociclib; first compound 0.02 µM) | relative viability (MK-8033 + Palbociclib; first compound 0.2 µM) | relative viability (MK-8033 + Palbociclib; first compound 0.6325 µM) | relative viability (MK-8033 + Palbociclib; first compound 2 µM) | relative viability (MK-8033 + Lapatinib; first compound 0.02 µM) | relative viability (MK-8033 + Lapatinib; first compound 0.2 µM) | relative viability (MK-8033 + Lapatinib; first compound 0.6325 µM) | relative viability (MK-8033 + Lapatinib; first compound 2 µM) | relative viability (MK-8033 + Luminespib; first compound 0.02 µM) | relative viability (MK-8033 + Luminespib; first compound 0.06325 µM) | relative viability (MK-8033 + Luminespib; first compound 0.2 µM) | relative viability (MK-8033 + Luminespib; first compound 0.6325 µM) | relative viability (MK-8033 + Luminespib; first compound 2 µM) | relative viability (Irinotecan + Navitoclax; first compound 0.6325 µM) | relative viability (MK-8033 + Palbociclib; first compound 0.06325 µM) | relative viability (MK-8033 + Lapatinib; first compound 0.06325 µM) |
| --- | --- | --- | --- | --- | --- | --- | --- | --- | --- | --- | --- | --- | --- | --- | --- | --- | --- | --- | --- |
| NCI-H1793 | 0.447 | 0.347 | 0.664 | 0.263 | 0.274 | 0.288 | 0.291 | 0.793 | 0.492 | 0.783 | 0.495 | 0.174 | 0.217 | 0.161 | 0.209 | 0.162 | – | – | – |
| NCI-H1915 | 0.18 | 0.151 | 0.115 | 0.538 | 0.496 | 0.492 | 0.483 | 0.935 | 0.992 | 1 | 0.948 | 0.728 | 0.8 | 0.676 | 0.827 | 0.668 | 0.318 | 0.525 | 0.85 |
| NCI-H1944 | 0.26 | 0.195 | 0.205 | 0.306 | 0.348 | 0.324 | 0.327 | 0.931 | 0.808 | 0.825 | 0.791 | 0.742 | 0.62 | 0.708 | 0.719 | 0.653 | 0.653 | 0.316 | – |
| NCI-H1975 | 1.11 | 0.411 | 0.167 | 0.579 | 0.51 | 0.339 | 0.602 | 0.829 | 0.801 | 0.844 | 0.826 | 0.195 | 0.24 | 0.176 | 0.203 | 0.15 | 1.06 | 0.469 | 0.795 |
| NCI-H1993 | 0.834 | 0.588 | 0.812 | 0.563 | 0.453 | 0.649 | 0.424 | 0.765 | 0.7 | 0.802 | 0.828 | 0.733 | 0.838 | 0.827 | 0.964 | 0.73 | 0.97 | 0.566 | 0.677 |
| NCI-H2009 | 0.58 | 0.19 | 0.148 | 0.251 | 0.249 | 0.214 | 0.304 | 0.959 | 0.929 | 1.13 | 0.973 | 0.987 | 0.921 | 0.978 | 0.999 | 1 | 0.802 | 0.23 | 0.887 |
| NCI-H2023 | 0.812 | 0.277 | 0.103 | 0.39 | 0.236 | 0.214 | 0.174 | 0.923 | 0.624 | 0.59 | 0.523 | 0.758 | 0.652 | 0.652 | 0.693 | 0.634 | 1 | 0.279 | 0.701 |
| NCI-H2085 | 0.862 | 0.493 | 0.507 | 0.468 | 0.499 | 0.484 | 0.474 | 0.746 | 0.695 | 0.743 | 0.806 | 0.471 | 0.483 | 0.378 | 0.447 | 0.415 | 1.03 | 0.479 | 0.646 |
| NCI-H2087 | 0.26 | 0.184 | 0.218 | 0.193 | 0.248 | 0.26 | 0.235 | 0.991 | 1.11 | 0.859 | 0.98 | 0.119 | 0.174 | 0.148 | 0.242 | 0.148 | 0.468 | 0.21 | 1.11 |
| NCI-H2126 | 0.421 | 0.319 | 0.308 | 0.336 | 0.346 | 0.353 | 0.311 | 0.743 | 0.744 | 0.779 | 0.803 | 0.905 | 0.757 | 0.817 | 0.836 | 0.872 | – | 0.37 | 0.653 |
| NCI-H2170 | 0.348 | 0.308 | 0.192 | 0.392 | 0.372 | 0.388 | 0.391 | 0.272 | 0.254 | 0.311 | 0.275 | 0.435 | 0.388 | 0.694 | 0.622 | 0.726 | 0.52 | 0.345 | 0.263 |
| NCI-H2228 | 0.529 | 0.405 | 0.51 | 0.815 | 0.807 | 0.621 | 0.82 | 1.34 | 0.848 | 1 | 0.98 | 0.178 | 0.0977 | 0.163 | 0.161 | 0.208 | 0.875 | 0.729 | 1.08 |
| NCI-H2347 | 0.477 | 0.348 | 0.277 | 0.368 | 0.428 | 0.441 | 0.464 | 0.872 | 0.903 | 0.781 | 0.914 | 0.362 | 0.277 | 0.473 | 0.408 | 0.556 | 0.648 | 0.408 | 0.858 |
| NCI-H2405 | 0.697 | 0.212 | 0.091 | 0.515 | 0.512 | 0.514 | 0.555 | 0.967 | 1.09 | 1.03 | 1.1 | 0.711 | 0.614 | 0.65 | 0.64 | 0.814 | – | 0.505 | 0.944 |
| NCI-H3122 | 0.235 | 0.226 | 0.209 | 0.155 | 0.19 | 0.191 | 0.223 | 1.03 | 1.01 | 1.01 | 0.993 | 0.0907 | 0.0983 | 0.0777 | 0.0917 | 0.0881 | 0.723 | 0.173 | 0.98 |
| PC-3 [JPC-3] | 0.436 | 0.307 | 0.333 | 0.506 | 0.505 | 0.516 | 0.554 | 0.449 | 0.444 | 0.477 | 0.482 | 0.728 | 0.618 | 0.713 | 0.663 | 0.713 | 0.703 | – | – |
| PC-14 | 0.876 | 0.196 | 0.147 | 0.517 | 0.542 | 0.553 | 0.464 | 0.338 | 0.305 | 0.31 | 0.294 | 0.125 | 0.128 | 0.131 | 0.174 | 0.224 | 0.987 | 0.422 | 0.25 |
